Patent US12077503B2, “Substituted cyclic amides and their use as herbicides” (FMC CORPORATION, priority 2015, dated 2024)

What was measured:
Type in all cases: in vivo
[1] = test system: Galium (catchweed bedstraw, Galium aparine); assay: Test C postemergence; conditions: scale 0 to 100, 0 no effect, 100 complete control
In short: (§1)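 Seeds in loam-sand soil treated preemergence, or plants in peat-based medium sprayed postemergence at 2–18 cm (1- to 4-leaf stage), with compound in a non-phytotoxic solvent mixture containing surfactant. Greenhouse-held 13–15 d, then visually rated against controls on a 0–100 scale (0 = no effect, 100 = complete control); dash = not tested.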

[2] = test system: blackgrass (Alopecurus myosuroides); assay: Test C postemergence; conditions: scale 0 to 100, 0 no effect, 100 complete control
In short: as §1

[3] = test system: chickweed (common chickweed, Stellaria media); assay: Test C postemergence; conditions: scale 0 to 100, 0 no effect, 100 complete control
In short: as §1

[4] = test system: foxtail, giant (giant foxtail, Setaria faberii); assay: Test C postemergence; conditions: scale 0 to 100, 0 no effect, 100 complete control
In short: as §1

[5] = test system: oat, wild (wild oat, Avena fatua); assay: Test C postemergence; conditions: scale 0 to 100, 0 no effect, 100 complete control
In short: as §1

[6] = test system: oilseed rape (Brassica napus); assay: Test C postemergence; conditions: scale 0 to 100, 0 no effect, 100 complete control
In short: as §1

[7] = test system: ryegrass, Italian (Italian ryegrass, Lolium multiflorum); assay: Test C postemergence; conditions: scale 0 to 100, 0 no effect, 100 complete control
In short: as §1

[8] = test system: wheat (winter wheat, Triticum aestivum); assay: Test C postemergence; conditions: scale 0 to 100, 0 no effect, 100 complete control
In short: as §1

[9] = test system: barnyardgrass (Echinochloa crus-galli); assay: Test F flooded paddy test; set-up: key: 0 = no effect, 100 = complete control; conditions: Flood
Text: (§2) Plant species in the flooded paddy test consisted of one stand of 9 or 10 water seeded rice seedlings (Rice, W. S. Jap, Oryza sativa cv. ‘Japonica—M202’ or Rice, W. S. Ind, ‘Indica’), and two stands of 3 or 4 transplanted rice seedlings (Oryza sativa cv. ‘Japonica—M202’), Monochoria (Monochoria vaginalis), sedge, umbrella (small-flower umbrella sedge, Cyperus difformis), hardstem bulrush (Scirpus juncoides), redstem (purple redstem, Ammannia coccinea), rice flatsedge (Cyperus iria), bearded sprangletop (Leptochloa fascicularis), barnyardgrass (Echinochloa crus-galli), waterplantain (common waterplantain, Alisma plantago-aquatica), and late watergrass (Echinochloa oryzicola) grown to the 2 to 2.5 leaf stage for testing. Potted plants were grown in a greenhouse with day/night temperature settings of 30/27° C., and supplemental balanced lighting was provided to maintain a 16-hour photoperiod. At time of treatment, test pots were flooded to 3 cm above the soil surface, treated by application of test compounds directly to the paddy water, and then maintained at that water depth for the duration of the test. Effects of treatments on rice and weeds were visually evaluated by comparison to untreated controls after 21 d. Plant response ratings, summarized in Table F, are based on a scale of 0 to 100 where 0 is no effect and 100 is complete control. A dash (-) response means no test result.

[10] = test system: bearded sprangletop (Leptochloa fascicularis); assay: Test F flooded paddy test; set-up: key: 0 = no effect, 100 = complete control; conditions: Flood
Text: as §2

[11] = test system: late watergrass (Echinochloa oryzicola); assay: Test F flooded paddy test; set-up: key: 0 = no effect, 100 = complete control; conditions: Flood
Text: as §2

[12] = test system: rice flatsedge (Cyperus iria); assay: Test F flooded paddy test; set-up: key: 0 = no effect, 100 = complete control; conditions: Flood
Text: as §2

[13] = test system: sedge, umbrella (small-flower umbrella sedge, Cyperus difformis); assay: Test F flooded paddy test; set-up: key: 0 = no effect, 100 = complete control; conditions: Flood
Text: as §2

[14] = test system: transplanted rice seedlings (Oryza sativa cv. ‘Japonica—M202’); assay: Test F flooded paddy test; set-up: key: 0 = no effect, 100 = complete control; conditions: Flood
Text: as §2

[15] = test system: water seeded rice seedlings (Rice, W. S. Jap, Oryza sativa cv. ‘Japonica—M202’); assay: Test F flooded paddy test; set-up: key: 0 = no effect, 100 = complete control; conditions: Flood
Text: as §2

CN1C[C@H](c2ccc(F)c(F)c2)[C@@H](C(=O)Nc2cccc(F)c2F)C1=O [Compound 639, (3S,4S)—N-(2,3-difluorophenyl)-4-(3,4-difluorophenyl)-1-methyl-2-oxo-3-pyrrolidinecarboxamide]
Plant response rating, Galium ([1]; 31 g ai/ha): 50 | Plant response rating, Galium ([1]; 62 g ai/ha): 50 | Plant response rating, Galium ([1]; 125 g ai/ha): 70 | Plant response rating, Galium ([1]; 250 g ai/ha): 70 | Plant response rating, Blackgrass ([2]; 31 g ai/ha): 0 | Plant response rating, Blackgrass ([2]; 62 g ai/ha): 0 | Plant response rating, Blackgrass ([2]; 125 g ai/ha): 5 | Plant response rating, Blackgrass ([2]; 250 g ai/ha): 10 | Plant response rating, Chickweed ([3]; 31 g ai/ha): 40 | Plant response rating, Chickweed ([3]; 62 g ai/ha): 40 | Plant response rating, Chickweed ([3]; 125 g ai/ha): 50 | Plant response rating, Chickweed ([3]; 250 g ai/ha): 90 | Plant response rating, Foxtail, Giant ([4]; 31 g ai/ha): 35 | Plant response rating, Foxtail, Giant ([4]; 62 g ai/ha): 60 | Plant response rating, Foxtail, Giant ([4]; 125 g ai/ha): 80 | Plant response rating, Foxtail, Giant ([4]; 250 g ai/ha): 85 | Plant response rating, Oat, Wild ([5]; 31 g ai/ha): 0 | Plant response rating, Oat, Wild ([5]; 62 g ai/ha): 0 | Plant response rating, Oat, Wild ([5]; 125 g ai/ha): 0 | Plant response rating, Oat, Wild ([5]; 250 g ai/ha): 0 | Plant response rating, Oilseed Rape ([6]; 31 g ai/ha): 30 | Plant response rating, Oilseed Rape ([6]; 62 g ai/ha): 30 | Plant response rating, Oilseed Rape ([6]; 125 g ai/ha): 40 | Plant response rating, Oilseed Rape ([6]; 250 g ai/ha): 50 | Plant response rating, Ryegrass, Italian ([7]; 31 g ai/ha): 0 | Plant response rating, Ryegrass, Italian ([7]; 62 g ai/ha): 0 | Plant response rating, Ryegrass, Italian ([7]; 125 g ai/ha): 5 | Plant response rating, Ryegrass, Italian ([7]; 250 g ai/ha): 10 | Plant response rating, Wheat ([8]; 31 g ai/ha): 0 | Plant response rating, Wheat ([8]; 62 g ai/ha): 0 | Plant response rating, Wheat ([8]; 125 g ai/ha): 0 | Plant response rating, Wheat ([8]; 250 g ai/ha): 0 | Plant response rating: Barnyardgrass ([9]; 32 g ai/ha): 90 | Plant response rating: Barnyardgrass ([9]; 64 g ai/ha): 100 | Plant response rating: Barnyardgrass ([9]; 125 g ai/ha): 100 | Plant response rating: Barnyardgrass ([9]; 250 g ai/ha): 100 | Plant response rating: Sprangletop, Brdd. ([10]; 32 g ai/ha): 85 | Plant response rating: Sprangletop, Brdd. ([10]; 64 g ai/ha): 85 | Plant response rating: Sprangletop, Brdd. ([10]; 125 g ai/ha): 95 | Plant response rating: Sprangletop, Brdd. ([10]; 250 g ai/ha): 98 | Plant response rating: Watergrass, Late ([11]; 32 g ai/ha): 100 | Plant response rating: Watergrass, Late ([11]; 64 g ai/ha): 100 | Plant response rating: Watergrass, Late ([11]; 125 g ai/ha): 100 | Plant response rating: Watergrass, Late ([11]; 250 g ai/ha): 100 | Plant response rating: Flatsedge, Rice ([12]; 32 g ai/ha): 0 | Plant response rating: Flatsedge, Rice ([12]; 64 g ai/ha): 0 | Plant response rating: Flatsedge, Rice ([12]; 125 g ai/ha): 0 | Plant response rating: Flatsedge, Rice ([12]; 250 g ai/ha): 0 | Plant response rating: Sedge, Umbrella ([13]; 32 g ai/ha): 0 | Plant response rating: Sedge, Umbrella ([13]; 64 g ai/ha): 0 | Plant response rating: Sedge, Umbrella ([13]; 125 g ai/ha): 0 | Plant response rating: Sedge, Umbrella ([13]; 250 g ai/ha): 0 | Plant response rating: Rice, Transplanted ([14]; 32 g ai/ha): 0 | Plant response rating: Rice, Transplanted ([14]; 64 g ai/ha): 15 | Plant response rating: Rice, Transplanted ([14]; 125 g ai/ha): 25 | Plant response rating: Rice, Transplanted ([14]; 250 g ai/ha): 40 | Plant response rating: Rice, Water Seeded ([15]; 32 g ai/ha): 0 | Plant response rating: Rice, Water Seed. ([15]; 64 g ai/ha): 40 | Plant response rating: Rice, Water Seed. ([15]; 125 g ai/ha): 50 | Plant response rating: Rice, Water Seeded ([15]; 250 g ai/ha): 75
